In US8772344B2, “Pharmaceutical composition for inhibiting osteoclast growth” (National Defense Medical Center, priority 2011, dated 2014):

Legend:
murine RAW264.7 = test: Osteoclast differentiation of murine RAW264.7 cells (RANKL), TRAP staining and count of multinucleated cells; type: cell-based; conditions: for inhibiting osteoclasts grown (observation of plates, FIG. 2B): 10 nM, 15 nM and 20 nM, effect positive proportional to the concentration; for numbers of osteoclasts as a function of concentration (FIG. 4): compared to the contrast containing RANKL only
Protocol: Murine RAW264.7 (murine leukemic monocyte/macrophage), a type of osteoclast progenitor cells. The murine monocyte/macrophage cell line RAW264.7 was cultured with DMEM (Gibco BRL) containing 10% heat-inactivated FBS, penicillin (100 U/ml), and streptomycin (100 μg/ml). All cells were grown in a humidified atmosphere containing 5% CO^2 at 37. To induce osteoclast differentiation, RAW264.7 cells were suspended in α-MEM containing 10% FBS, 2 mM […], 100 U/ml penicillin, and 100 μg/ml streptomycin, seeded at 10^4 cells/dish in a 96-well plate and cultured with 100 ng/ml soluble RANKL for 5 days. The medium was changed on day 3.
(§1) TRAP staining was performed as described Han et al. 2007. Briefly, cells were washed with PBS and fixed with 3.7% formaldehyde for 30 min. After washing with PBS, cells were incubated at 37 in a humid and light-protected incubator for 1 hr in the reaction mixture of the Leukocyte Acid Phosphatase Assay kit (Cat. 387, Sigma), as directed by the manufacturer. Cells were washed three times with distilled water and TRAP-positive multinucleated cells containing five or more nuclei were counted under a light microscope. To measure TRAP activity, cells were lysed in 150λ of 0.2% Triton X-100 in PBS, RT for 15 min and then incubated with 100λ of phosphatase substrate solution kit (Cat. CS0740, Sigma) at 37 for 30 min. After incubation, the enzyme reaction mixture was transferred to another plate and the reaction was stopped with 100λ of 0.5N NaOH. Absorbance was measured at 405 nm in a ELISA plate reader, and activity calculated from standard curve generated using p-nitrophenol standards. TRAP activity was normalized to total protein (determined by the BCA assay (Cat. 23225, PIERCE)) as well as to total number of nuclei counted after TRAP and hematoxylin staining of a second, identical 96-well plate run in conjunction with that used for the TRAP assay.
(§2) Please refer to FIG. 1A and FIG. 1B, bone marrow-derived macrophages were plated in a plate A with M-CSF (FIG. 1A) and a plate B with M-CSF and RANKL (FIG. 1B) and murine RAW264.7 were plated in a plate C (FIG. 1C) and a plate D with RANKL (FIG. 1D) separately. After a period, the growth of the osteoclast in the plate A (plate C) is different from that in the plate B (plate D). According to the abovementioned, M-CSF and RANKL secreted by the osteoblasts will promote the growth of the osteoclast. Therefore, the growth of the osteoclast cannot be seen in the plate A. In the contrast, there are a lot of osteoclasts grown in the plate B.

[1] = system: osteoclasts from bone marrow-derived macrophages; test: Osteoclast formation from bone marrow-derived macrophages (M-CSF and RANKL), TRAP staining and count of multinucleated cells; type: cell-based, DBA/1J mice; conditions: for inhibiting osteoclasts grown (observation of plates, FIG. 2A) / numbers of osteoclasts as a function of concentration (FIG. 3): bone marrow-derived macrophages; for inhibiting osteoclasts grown (observation of plates, FIG. 2A): 10 nM, 15 nM and 20 nM, effect positive proportional to the concentration; for numbers of osteoclasts as a function of concentration (FIG. 3): compared to the contrast containing M-CSF and RANKL only; for effect for inhibiting osteoclast growth: comparison among the nine compounds of table 1, cell system not stated
Protocol: Bone marrow cells (BMCs) from DBA/1J mice were obtained for osteoclast progenitor cell preparation. The BMCs were isolated from the tibias and femurs of 8-wk-old male mice by flushing the bone marrow cavity with PBS. The cells were then centrifuged at 1000 g for 10 min and exposed to 5 ml of hypotonic ACK buffer ([…], and 0.1 mM EDTA, (pH 7.4)) at room temperature for […] to remove the red blood cells. They were incubated with α-MEM (Gibco BRL) containing penicillin (100 U/ml), streptomycin (100 μg/ml) and 10% heat-inactivated FBS for 12 hr to separate the floating and adherent cells. The floating cells were collected, suspended in α-MEM, counted, seeded onto a 96-well plate at 4×10^4 cells/well, and cultured in α-MEM in the presence of 30 ng/ml M-CSF for 3 days to form macrophage-like osteoclast precursor cells. […] On day 3, the medium was replaced with fresh medium containing M-CSF, RANKL and P. amboinicus.
as §1, §2

| SMILES | inhibiting osteoclasts grown (observation of plates, FIG. 2B) (murine RAW264.7) | numbers of osteoclasts as a function of concentration (FIG. 4) (murine RAW264.7) | inhibiting osteoclasts grown (observation of plates, FIG. 2A) [1] | numbers of osteoclasts as a function of concentration (FIG. 3) [1] | effect for inhibiting osteoclast growth [1] |
| --- | --- | --- | --- | --- | --- |
| O=C(Nc1ccc(Cl)cc1F)c1ccccc1O [Compound 6, N-(4-chloro-2-fluorophenyl)-2-hydroxybenzamide] | have the effect for inhibiting osteoclasts grown | can inhibit osteoclasts grown | have the effect for inhibiting osteoclasts grown | can inhibit osteoclasts grown | most significant effect for inhibiting osteoclast growth |
| O=C(Nc1cccc(C(F)(F)F)c1)c1ccccc1O [Compound 1, 2-hydroxy-N-[3-(trifluoromethyl)phenyl]benzamide] | – | – | – | – | most significant effect for inhibiting osteoclast growth |
| C#Cc1cccc(NC(=O)c2ccccc2O)c1 [Compound 3, N-(3-ethynylphenyl)-2-hydroxybenzamide] | have the effect for inhibiting osteoclasts grown | can inhibit osteoclasts grown | have the effect for inhibiting osteoclasts grown | can inhibit osteoclasts grown | most significant effect for inhibiting osteoclast growth |
| O=C(Nc1ccc(F)c(F)c1)c1ccccc1O [Compound 5, N-(3,4-difluorophenyl)-2-hydroxybenzamide] | have the effect for inhibiting osteoclasts grown | can inhibit osteoclasts grown | have the effect for inhibiting osteoclasts grown | can inhibit osteoclasts grown | most significant effect for inhibiting osteoclast growth |
